Data reported in US20020035061A1, “COMPOSITIONS AND METHODS FOR TREATING INFECTIONS USING CATIONIC PEPTIDES ALONE OR IN COMBINATION WITH ANTIBIOTICS” (priority 1996, published 2002).

Columns and labels:
[1] = test system: bacterial isolates; test: microbe, parasite or virus in culture; assay type: cell-based
[2] = test system: microorganisms with acquired resistance; test: microbe, parasite or virus in culture; assay type: cell-based; conditions: for Peptide MIC: in µg/mL
[3] = E. coli 1, Piperacillin section
[4] = H. influenzae 1, Piperacillin section
[5] = H. influenzae 2, Piperacillin section
[6] = S. marcescens 1, Piperacillin section
[7] = peptide + Amikacin, P. aeruginosa PA022
[8] = peptide + Ciprofloxacin, P. aeruginosa PA41
[9] = peptide + Gentamicin, P. aeruginosa PA022
[10] = peptide + Gentamicin, S. maltophilia SMA020
[11] = peptide + Gentamicin, S. maltophilia SMA021
[12] = peptide + Piperacillin, E. coli 1
[13] = peptide + Piperacillin, H. influenzae 1
[14] = peptide + Piperacillin, H. influenzae 2
[15] = peptide + Piperacillin, S. marcescens 1

KKWWRRALQGLKTAGPAIQSVLNK [MBI 21A2]
Peptide MIC Alone ([1]; 1. Amikacin, A. baumannii ABI001): 8 µg/mL
Peptide MIC Alone ([1]; 1. Amikacin, A. baumannii ABI003): 8 µg/mL
Peptide MIC Alone ([1]; 1. Amikacin, E. faecalis EFS008): >128 µg/mL
Peptide MIC Alone ([1]; 1. Amikacin, E. faecium EFM004): >128 µg/mL
Peptide MIC Alone ([1]; 1. Amikacin, P. aeruginosa PA022): 8 µg/mL
Peptide MIC Alone ([1]; 1. Amikacin, S. aureus SA025 MRSA): 2 µg/mL
Peptide MIC Alone ([1]; 1. Amikacin, S. epidermidis SE003): >128 µg/mL
Peptide MIC Alone ([1]; 1. Amikacin, S. maltophilia SMA018): 16 µg/mL
Peptide MIC Alone ([1]; 1. Amikacin, S. maltophilia SMA022): >128 µg/mL
Peptide MIC Alone ([1]; 3. Ciprofloxacin, P. aeruginosa PA4): >128 µg/mL
Peptide MIC Alone ([1]; 3. Ciprofloxacin, P. aeruginosa PA41): 64 µg/mL
Peptide MIC Alone ([1]; 3. Ciprofloxacin, S. aureus SA25): 16 µg/mL
Peptide MIC Alone ([1]; 3. Ciprofloxacin, S. aureus SA93): 16 µg/mL
Peptide MIC Alone ([1]; 4. Gentamicin, A. baumannii ABI002): 8 µg/mL
Peptide MIC Alone ([1]; 4. Gentamicin, P. aeruginosa PA022): 8 µg/mL
Peptide MIC Alone ([1]; 4. Gentamicin, S. aureus SA025 MRSA): 8 µg/mL
Peptide MIC Alone ([1]; 4. Gentamicin, S. maltophilia SMA019): 16 µg/mL
Peptide MIC Alone ([1]; 4. Gentamicin, S. maltophilia SMA020): 16 µg/mL
Peptide MIC Alone ([1]; 4. Gentamicin, S. maltophilia SMA021): 16 µg/mL
Amikacin MIC + Peptide ([1]; A. baumannii ABI001): 32 µg/mL
Peptide MIC + Amikacin ([1]; A. baumannii ABI001): 0.125 µg/mL
Gentamicin MIC + Peptide ([1]; A. baumannii ABI002): 16 µg/mL
Peptide MIC + Gentamicin ([1]; A. baumannii ABI002): 0.5 µg/mL
Amikacin MIC + Peptide ([1]; A. baumannii ABI003): 8 µg/mL
Peptide MIC + Amikacin ([1]; A. baumannii ABI003): 4 µg/mL
Peptide MIC + Piperacillin ([1]; E. coli 1): 2 µg/mL
Piperacillin MIC + Peptide ([1]; E. coli 1): 8 µg/mL
Peptide MIC Alone [1, 3]: 4 µg/mL
Amikacin MIC + Peptide ([1]; E. faecalis EFS008): 32 µg/mL
Peptide MIC + Amikacin ([1]; E. faecalis EFS008): 0.125 µg/mL
Amikacin MIC + Peptide ([1]; E. faecium EFM004): 64 µg/mL
Peptide MIC + Amikacin ([1]; E. faecium EFM004): 16 µg/mL
Peptide MIC + Piperacillin ([1]; H. influenzae 1): 64 µg/mL
Piperacillin MIC + Peptide ([1]; H. influenzae 1): 4 µg/mL
Peptide MIC Alone [1, 4]: >128 µg/mL
Peptide MIC + Piperacillin ([1]; H. influenzae 2): 32 µg/mL
Piperacillin MIC + Peptide ([1]; H. influenzae 2): 32 µg/mL
Peptide MIC Alone [1, 5]: >128 µg/mL
Peptide MIC + Piperacillin ([1]; P. aeruginosa 23): 16 µg/mL
Piperacillin MIC + Peptide ([1]; P. aeruginosa 23): 8 µg/mL
Peptide MIC Alone ([1]; P. aeruginosa 23, Piperacillin section): >128 µg/mL
Ciprofloxacin MIC + Peptide ([1]; P. aeruginosa PA4): 0.125 µg/mL
Peptide MIC + Ciprofloxacin ([1]; P. aeruginosa PA4): 64 µg/mL
Amikacin MIC + Peptide ([1]; P. aeruginosa PA022): 16 µg/mL
Gentamicin MIC + Peptide ([1]; P. aeruginosa PA022): 8 µg/mL
Peptide MIC + Amikacin ([1]; P. aeruginosa PA022): 2 µg/mL
Peptide MIC + Gentamicin ([1]; P. aeruginosa PA022): 2 µg/mL
Ciprofloxacin MIC + Peptide ([1]; P. aeruginosa PA41): 1 µg/mL
Peptide MIC + Ciprofloxacin ([1]; P. aeruginosa PA41): 16 µg/mL
Peptide MIC + Piperacillin ([1]; S. aureus 19 MRSA): 2 µg/mL
Piperacillin MIC + Peptide ([1]; S. aureus 19 MRSA): 64 µg/mL
Peptide MIC Alone ([1]; S. aureus 19 MRSA, Piperacillin section): >128 µg/mL
Ciprofloxacin MIC + Peptide ([1]; S. aureus SA25): 0.5 µg/mL
Peptide MIC + Ciprofloxacin ([1]; S. aureus SA25): 4 µg/mL
Amikacin MIC + Peptide ([1]; S. aureus SA025 MRSA): 2 µg/mL
Gentamicin MIC + Peptide ([1]; S. aureus SA025 MRSA): 32 µg/mL
Peptide MIC + Amikacin ([1]; S. aureus SA025 MRSA): 1 µg/mL
Peptide MIC + Gentamicin ([1]; S. aureus SA025 MRSA): 1 µg/mL
Ciprofloxacin MIC + Peptide ([1]; S. aureus SA93): 8 µg/mL
Peptide MIC + Ciprofloxacin ([1]; S. aureus SA93): 2 µg/mL
Peptide MIC + Piperacillin ([1]; S. aureus SB2MRSA): 2 µg/mL
Piperacillin MIC + Peptide ([1]; S. aureus SB2MRSA): 64 µg/mL
Peptide MIC Alone ([1]; S. aureus SB2MRSA, Piperacillin section): 32 µg/mL
Amikacin MIC + Peptide ([1]; S. epidermidis SE003): 4 µg/mL
Peptide MIC + Amikacin ([1]; S. epidermidis SE003): 64 µg/mL
Peptide MIC + Piperacillin ([1]; S. maltophilia 6): 16 µg/mL
Piperacillin MIC + Peptide ([1]; S. maltophilia 6): 64 µg/mL
Peptide MIC Alone ([1]; S. maltophilia 6, Piperacillin section): 128 µg/mL
Peptide MIC + Piperacillin ([1]; S. maltophilia 14): 16 µg/mL
Piperacillin MIC + Peptide ([1]; S. maltophilia 14): 4 µg/mL
Peptide MIC Alone ([1]; S. maltophilia 14, Piperacillin section): 32 µg/mL
Amikacin MIC + Peptide ([1]; S. maltophilia SMA018): 64 µg/mL
Peptide MIC + Amikacin ([1]; S. maltophilia SMA018): 4 µg/mL
Gentamicin MIC + Peptide ([1]; S. maltophilia SMA019): 16 µg/mL
Peptide MIC + Gentamicin ([1]; S. maltophilia SMA019): 4 µg/mL
Gentamicin MIC + Peptide ([1]; S. maltophilia SMA020): 16 µg/mL
Peptide MIC + Gentamicin ([1]; S. maltophilia SMA020): 4 µg/mL
Gentamicin MIC + Peptide ([1]; S. maltophilia SMA021): 16 µg/mL
Peptide MIC + Gentamicin ([1]; S. maltophilia SMA021): 4 µg/mL
Amikacin MIC + Peptide ([1]; S. maltophilia SMA022): 32 µg/mL
Peptide MIC + Amikacin ([1]; S. maltophilia SMA022): 32 µg/mL
Peptide MIC + Piperacillin ([1]; S. marcescens 1): 4 µg/mL
Piperacillin MIC + Peptide ([1]; S. marcescens 1): 16 µg/mL
Peptide MIC Alone [1, 6]: >128 µg/mL
FIC ([1]; peptide + Amikacin, A. baumannii ABI001): 0.52
FIC ([1]; peptide + Amikacin, A. baumannii ABI003): 0.52
FIC ([1]; peptide + Amikacin, E. faecalis EFS008): 0.50
FIC ([1]; peptide + Amikacin, E. faecium EFM004): 0.56
FIC [1, 7]: 0.50
FIC ([1]; peptide + Amikacin, S. aureus SA025 MRSA): 0.56
FIC ([1]; peptide + Amikacin, S. epidermidis SE003): 0.38
FIC ([1]; peptide + Amikacin, S. maltophilia SMA018): 0.50
FIC ([1]; peptide + Amikacin, S. maltophilia SMA022): 0.25
FIC ([1]; peptide + Ciprofloxacin, P. aeruginosa PA4): 0.50
FIC [1, 8]: 0.50
FIC ([1]; peptide + Ciprofloxacin, S. aureus SA25): 0.50
FIC ([1]; peptide + Ciprofloxacin, S. aureus SA93): 0.38
FIC ([1]; peptide + Gentamicin, A. baumannii ABI002): 0.56
FIC [1, 9]: 0.50
FIC ([1]; peptide + Gentamicin, S. aureus SA025 MRSA): 0.63
FIC ([1]; peptide + Gentamicin, S. maltophilia SMA019): 0.50
FIC [1, 10]: 0.50
FIC [1, 11]: 0.50
FIC [1, 12]: 0.53
FIC [1, 13]: 0.31
FIC [1, 14]: 0.38
FIC ([1]; peptide + Piperacillin, P. aeruginosa 23): 0.19
FIC ([1]; peptide + Piperacillin, S. aureus 19 MRSA): 0.51
FIC ([1]; peptide + Piperacillin, S. aureus SB2MRSA): 0.56
FIC ([1]; peptide + Piperacillin, S. maltophilia 6): 0.38
FIC ([1]; peptide + Piperacillin, S. maltophilia 14): 0.53
FIC [1, 15]: 0.27
Gentamicin MIC + Peptide ([2]; A. calcoaceticus AC001): 4 µg/mL
Peptide MIC + Gentamicin ([2]; A. calcoaceticus AC001): 8 µg/mL
Peptide MIC Alone ([2]; A. calcoaceticus AC001, Gentamicin section): 16 µg/mL
Peptide MIC + Piperacillin ([2]; E. coli 1): 2 µg/mL
Piperacillin MIC + Peptide ([2]; E. coli 1): 8 µg/mL
Peptide MIC Alone [2, 3]: 4 µg/mL
Peptide MIC + Piperacillin ([2]; H. influenzae 1): 64 µg/mL
Piperacillin MIC + Peptide ([2]; H. influenzae 1): 4 µg/mL
Peptide MIC Alone [2, 4]: >128 µg/mL
Peptide MIC + Piperacillin ([2]; H. influenzae 2): 64 µg/mL
Piperacillin MIC + Peptide ([2]; H. influenzae 2): 4 µg/mL
Peptide MIC Alone [2, 5]: >128 µg/mL
Amikacin MIC + Peptide ([2]; P. aeruginosa PA022): 16 µg/mL
Gentamicin MIC + Peptide ([2]; P. aeruginosa PA022): 2 µg/mL
Peptide MIC + Amikacin ([2]; P. aeruginosa PA022): 2 µg/mL
Peptide MIC + Gentamicin ([2]; P. aeruginosa PA022): 4 µg/mL
Peptide MIC Alone ([2]; P. aeruginosa PA022, Amikacin section): 8 µg/mL
Peptide MIC Alone ([2]; P. aeruginosa PA022, Gentamicin section): 8 µg/mL
Ciprofloxacin MIC + Peptide ([2]; P. aeruginosa PA41): 1 µg/mL
Peptide MIC + Ciprofloxacin ([2]; P. aeruginosa PA41): 16 µg/mL
Peptide MIC Alone ([2]; P. aeruginosa PA41, Ciprofloxacin section): 64 µg/mL
Ciprofloxacin MIC + Peptide ([2]; P. aeruginosa PA77): 0.25 µg/mL
Peptide MIC + Ciprofloxacin ([2]; P. aeruginosa PA77): 32 µg/mL
Peptide MIC Alone ([2]; P. aeruginosa PA77, Ciprofloxacin section): 64 µg/mL
Peptide MIC ([2]; P. aeruginosa, combination with Ciprofloxacin): 16
Peptide MIC ([2]; S. aureus, combination with Ciprofloxacin): 4
Peptide MIC ([2]; S. aureus, combination with Mupirocin): 32
Peptide MIC + Piperacillin ([2]; S. maltophilia 3): 16 µg/mL
Piperacillin MIC + Peptide ([2]; S. maltophilia 3): 16 µg/mL
Peptide MIC Alone ([2]; S. maltophilia 3, Piperacillin section): 32 µg/mL
Peptide MIC + Piperacillin ([2]; S. maltophilia 11): 64 µg/mL
Piperacillin MIC + Peptide ([2]; S. maltophilia 11): 8 µg/mL
Peptide MIC Alone ([2]; S. maltophilia 11, Piperacillin section): 128 µg/mL
Gentamicin MIC + Peptide ([2]; S. maltophilia SMA020): 0.125 µg/mL
Peptide MIC + Gentamicin ([2]; S. maltophilia SMA020): 8 µg/mL
Peptide MIC Alone ([2]; S. maltophilia SMA020, Gentamicin section): 16 µg/mL
Gentamicin MIC + Peptide ([2]; S. maltophilia SMA021): 0.125 µg/mL
Peptide MIC + Gentamicin ([2]; S. maltophilia SMA021): 8 µg/mL
Peptide MIC Alone ([2]; S. maltophilia SMA021, Gentamicin section): 16 µg/mL
Peptide MIC + Piperacillin ([2]; S. marcescens 1): 4 µg/mL
Piperacillin MIC + Peptide ([2]; S. marcescens 1): 16 µg/mL
Peptide MIC Alone [2, 6]: >128 µg/mL
FIC [2, 7]: 0.50
FIC [2, 8]: 0.50
FIC ([2]; peptide + Ciprofloxacin, P. aeruginosa PA77): 0.63
FIC ([2]; peptide + Gentamicin, A. calcoaceticus AC001): 1.00
FIC [2, 9]: 0.56
FIC [2, 10]: 0.50
FIC [2, 11]: 0.50
FIC [2, 12]: 0.53
FIC [2, 13]: 0.31
FIC [2, 14]: 0.28
FIC ([2]; peptide + Piperacillin, S. maltophilia 3): 0.75
FIC ([2]; peptide + Piperacillin, S. maltophilia 11): 0.75
FIC [2, 15]: 0.27
